For one assay, the system named is ob/ob and db/db mice. The note with it: following 8 weeks of administration; cited from earlier work.
For assay [1], the target named is recombinant human AMPK complex 1 (containing α1β1γ1) (Homo sapiens (Human), UniProt Q13131+Q9Y478). In words: In vitro AMPK activation assay (AMPKSAMSF), complex 1. It is filed as biochemical. The following applies: recombinant human AMPK complex 1 (α1β1γ1); for % Maximum AMP Activation of human AMPK Complex 1: 10-point titration. The method, then:
(§1) The recombinant human AMPK complex 1 (containing α1β1γ1) or AMPK complex 7 (containing α2β1γ1) was obtained from baculovirus expression system. Recombinant viruses were generated by cotransfection of AMPK/pBacPak9 clones with Baculogold baculovirus DNA (Pharmingen) in spodoptera frugiperda 21 cells according to the manufacturer's instructions. Each round of virus amplification was performed for 5 days in Grace's medium containing 10% serum. Virus that had been subjected to three rounds of amplification was used for all protein production procedures. To express the AMPK complex, sf21 cells were adapted to serum free medium (SF900 II, Invitrogen) by sequential dilution from serum containing stocks into SF900II medium and maintained in shaker flasks at 90 rpm at 27° C. The recombinant AMPK enzyme complex was produced by triple infection, one recombinant virus for each of the subunits, in sf21 cells under serum free conditions. Cells were infected in log phase, 1×10^6 cells/ml, at a multiplicity of infection of 5. Cells were harvested by centrifugation at 10,000×g for 15 minutes after 72 hours of infection with viruses. The insect cell pellet from 2 liters of culture was resuspended in 50 ml lysis buffer (20 mM Tris-HCl, 50 mM NaCl, 50 mM NaF, 30 mM Na PPi, 0.25 M sucrose, 10 mM ZnCl2, 2 mM DTT, 0.4 mg/ml digitonin) and subjected to two cycles of freeze-thaw lysis in a dry-ice ethanol bath. Insoluble material was removed by centrifugation at 10,000×g and the supernatant was fractionated with use of polyethylene glycol (PEG). The protein fraction precipitating between 2.5 and 6% PEG was used for further purification using a Blue-Sepharose step (Zhou et al, J. Clin. Invest. 108, 1167-1174, 2001).
(§2) The in vitro AMPK activation assay is performed in a volume of 30 μl in a 384-well plate. Enzyme reactions were assembled in the microtiter plate by adding 15 μl of 2X enzyme in assay buffer (20 mM HEPES, pH 7.3, 5 mM MgCl2, 3 mM DTT, 0.01% Brij 35 and CamK Kinase, to activate AMPK) to wells which contained either DMSO or compound. The reaction was initiated with the addition of 15 μl 2× substrate mixture containing 200 μM ATP, and 3.0 μM fluorescently labeled SAMS (5-FAM-HMRSAMSGLHLVKRR-COOH) in assay buffer. After 45-minute incubation at 25° C., the reaction was stopped by the addition of 70 μl stop buffer (100 mM HEPES, pH 7.3, 40 mM EDTA, 0.015% Brij 35). Phosphorylated 5-FAM SAMS product is assessed using a Caliper EZ Reader LabChip microfluidics reader. Product conversion is determined by calculating the peak heights of the substrate and product and reporting the product/(product+substrate) peak ratio. The 10-point titration data were expressed as % maximum AMP activation. The results were plotted using 4 parameter fit and the inflection point reflecting 50% of the maximum activation was reported as the EC50.

The target in assay [2] is recombinant human AMPK complex 7 (containing α2β1γ1) (Homo sapiens (Human), UniProt P54646+Q9Y478). In words: In vitro AMPK activation assay (AMPKSAMSF), complex 7. Format: biochemical. The note with it: recombinant human AMPK complex 7 (α2β1γ1); for Emax: 10-point titration, read-out: % Maximum AMP Activation of human AMPK Complex 7. The method, then:
as §1, §2

Molecules are shown by their SMILES.

Sequence of recombinant human AMPK complex 7 (containing α2β1γ1) (P54646 whole entry): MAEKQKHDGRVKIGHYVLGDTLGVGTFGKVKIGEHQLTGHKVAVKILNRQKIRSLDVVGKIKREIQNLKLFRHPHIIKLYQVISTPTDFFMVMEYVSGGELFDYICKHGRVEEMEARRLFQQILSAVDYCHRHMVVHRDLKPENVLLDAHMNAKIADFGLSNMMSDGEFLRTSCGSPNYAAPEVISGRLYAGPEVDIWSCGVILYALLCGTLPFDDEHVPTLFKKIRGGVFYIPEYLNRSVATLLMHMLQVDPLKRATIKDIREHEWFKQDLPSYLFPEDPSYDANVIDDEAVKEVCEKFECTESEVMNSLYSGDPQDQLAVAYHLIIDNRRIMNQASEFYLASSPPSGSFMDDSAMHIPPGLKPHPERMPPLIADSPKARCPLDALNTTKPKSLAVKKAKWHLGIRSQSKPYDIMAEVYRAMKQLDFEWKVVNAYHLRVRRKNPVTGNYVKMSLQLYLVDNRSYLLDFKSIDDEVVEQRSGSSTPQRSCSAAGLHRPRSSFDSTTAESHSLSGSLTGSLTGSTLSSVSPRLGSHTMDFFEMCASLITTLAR
Sequence of recombinant human AMPK complex 7 (containing α2β1γ1) (Q9Y478 whole entry): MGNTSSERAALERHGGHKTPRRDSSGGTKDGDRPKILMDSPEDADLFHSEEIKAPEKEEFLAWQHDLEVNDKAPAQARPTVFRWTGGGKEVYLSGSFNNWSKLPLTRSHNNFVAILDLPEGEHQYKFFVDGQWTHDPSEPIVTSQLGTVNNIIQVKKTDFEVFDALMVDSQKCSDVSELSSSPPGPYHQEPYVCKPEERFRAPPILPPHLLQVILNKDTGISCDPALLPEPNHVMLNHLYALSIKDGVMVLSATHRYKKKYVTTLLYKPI
Sequence of recombinant human AMPK complex 7 (containing α2β1γ1) (P54619 whole entry partner): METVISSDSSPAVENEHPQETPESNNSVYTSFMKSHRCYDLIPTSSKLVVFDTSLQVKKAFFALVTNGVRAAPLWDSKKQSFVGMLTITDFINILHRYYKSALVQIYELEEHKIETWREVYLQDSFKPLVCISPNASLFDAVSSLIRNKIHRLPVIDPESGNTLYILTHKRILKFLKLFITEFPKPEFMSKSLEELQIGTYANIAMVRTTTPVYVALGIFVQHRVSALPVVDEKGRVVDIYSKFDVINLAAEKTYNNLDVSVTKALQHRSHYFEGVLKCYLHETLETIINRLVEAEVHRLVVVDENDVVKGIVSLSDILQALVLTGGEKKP
Sequence of recombinant human AMPK complex 1 (containing α1β1γ1) (Q13131 whole entry): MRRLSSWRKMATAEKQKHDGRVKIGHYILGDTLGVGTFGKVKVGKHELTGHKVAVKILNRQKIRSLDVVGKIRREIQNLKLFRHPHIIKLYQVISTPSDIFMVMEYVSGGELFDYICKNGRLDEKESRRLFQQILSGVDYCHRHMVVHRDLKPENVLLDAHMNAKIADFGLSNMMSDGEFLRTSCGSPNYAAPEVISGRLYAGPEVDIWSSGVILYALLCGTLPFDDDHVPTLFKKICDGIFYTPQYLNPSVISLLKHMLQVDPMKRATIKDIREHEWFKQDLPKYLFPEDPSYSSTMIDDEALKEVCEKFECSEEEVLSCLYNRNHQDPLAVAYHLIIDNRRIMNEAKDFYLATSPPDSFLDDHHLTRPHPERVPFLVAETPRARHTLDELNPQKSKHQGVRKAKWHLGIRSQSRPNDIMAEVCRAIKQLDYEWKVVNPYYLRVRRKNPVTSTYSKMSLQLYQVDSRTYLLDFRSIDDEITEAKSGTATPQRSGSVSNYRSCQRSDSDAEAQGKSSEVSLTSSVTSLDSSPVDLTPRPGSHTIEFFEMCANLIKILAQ
Sequence of recombinant human AMPK complex 1 (containing α1β1γ1) (Q9Y478 whole entry): as the sequence (Q9Y478 whole entry) above
Sequence of recombinant human AMPK complex 1 (containing α1β1γ1) (P54619 whole entry partner): as the sequence (P54619 whole entry partner) above

Take `NC(=O)c1ncn([C@@H]2O[C@H](CO)[C@@H](O)[C@H]2O)c1N` [AICAR]: the blood glucose reduction in the assay with ob/ob and db/db mice is on record as 35%.

Broadly, the EC50 is the midpoint of the concentration-response curve. Turning to `CS(=O)(=O)Cc1ccc(-c2ccc(-c3cc4nc(O[C@H]5CO[C@H](CO)[C@@H](O)C5)[nH]c4cc3Cl)cc2)cc1` [Example 2], in assay [1], the EC50 stood at 36 nM and the “% Maximum AMP Activation of human AMPK Complex 1” value (“% Maximum AMP Activation” for short) amounted to 490%.

In the case of `OC[C@H]1OC[C@H](Oc2nc3cc(-c4ccc(-c5ccc(-c6nccc(O)n6)cc5)cc4)c(Cl)cc3[nH]2)C[C@@H]1O` [Example 6], in assay [2], the EC50 was determined as 7 nM and the Emax is 373%.

Regarding `CC(CO)(CO)c1ccc(-c2ccc(-c3cc4nc(O[C@H]5CO[C@H](CO)[C@@H](O)C5)[nH]c4cc3Cl)cc2)cc1` [Example 7], in assay [2], the half-maximal effective concentration (EC50) was 6 nM and the Emax is 333%.

As for `OC[C@H]1OC[C@H](Oc2nc3cc(-c4ccc(-c5ccc(C6CNCCO6)cc5)cc4)c(Cl)cc3[nH]2)C[C@@H]1O` (stereo partly drawn) [Example 8], in assay [2], the EC50 amounted to 12 nM and the Emax stood at 348%.

For `N=c1nc(N)[nH]n1-c1ccc(-c2ccc(-c3cc4nc(O[C@H]5CO[C@H](CO)[C@@H](O)C5)[nH]c4cc3Cl)cc2)cc1` [Example 16], in assay [2], the EC50 was determined as 7 nM and the Emax was found to be 373%.

Regarding `O=S(=O)(c1ccc(-c2ccc(-c3cc4nc(O[C@H]5CO[C@H](CO)[C@@H](O)C5)[nH]c4cc3Cl)cc2)cc1)C1CCNCC1` [Example 18], in assay [2], the EC50 turned out to be 14 nM and the Emax turned out to be 364%.

On to `O=C1NCCC1c1ccc(-c2ccc(-c3cc4nc(O[C@H]5CO[C@H](CO)[C@@H](O)C5)[nH]c4cc3Cl)cc2)cc1` (stereo partly drawn) [Example 19], for which, in assay [2], the EC50 was found to be 15 nM and the Emax was 392%.

Regarding `OC[C@H]1OC[C@H](Oc2nc3cc(-c4ccc(-c5ccc(-n6cncn6)cc5)cc4)c(Cl)cc3[nH]2)C[C@@H]1O` [Example 21], in assay [2], the EC50 turned out to be 9 nM and the Emax is 400%.

Turning to `OC[C@H]1OC[C@H](Oc2nc3cc(-c4ccc(-c5ccc(-c6nnn[nH]6)cc5)cc4)c(Cl)cc3[nH]2)C[C@@H]1O` [Example 23], in assay [2], the EC50 was 18 nM and the Emax is 387%.

Take `CC(C)(O)Cc1cnn(-c2ccc(-c3ccc(-c4cc5nc(O[C@H]6CO[C@H](CO)[C@@H](O)C6)[nH]c5cc4Cl)cc3)cc2)c1` [Example 24]: in assay [2], the concentration for a half-maximal effect (EC50) is 18 nM and the Emax was 360%.

`CS(=O)(=O)c1ccc(-c2ccc(-c3c(F)cc4[nH]c(O[C@H]5CO[C@H](CO)[C@@H](O)C5)nc4c3F)cc2)cc1` [Example 26]: in assay [1], the 50% effective concentration (EC50) was determined as 7 nM and the “% Maximum AMP Activation” value turned out to be 558%.

Turning to `CC(C)(O)c1ccc(-c2ccc(-c3c(F)cc4[nH]c(O[C@H]5CO[C@H](CO)[C@@H](O)C5)nc4c3F)cc2)cc1` [Example 29], in assay [1], the EC50 was 26 nM and the “% Maximum AMP Activation” value worked out at 492%.

For `OC[C@H]1OC[C@H](Oc2nc3c(F)c(-c4ccc(-c5ccc(-c6nccc(O)n6)cc5)cc4)c(F)cc3[nH]2)C[C@@H]1O` [Example 35], in assay [2], the 50% effective concentration (EC50) is 3 nM and the Emax was determined as 370%.

As to `OC[C@H]1OC[C@H](Oc2nc3c(F)c(-c4ccc(-c5ccc(C6CNCCO6)cc5)cc4)c(F)cc3[nH]2)C[C@@H]1O` (stereo partly drawn) [Example 36], in assay [2], the concentration giving a half-maximal response (EC50) stood at 3 nM and the Emax stood at 327%.

With `OC[C@H]1OC[C@H](Oc2nc3c(F)c(-c4ccc(-c5ccc(-c6ncco6)cc5)cc4)c(F)cc3[nH]2)C[C@@H]1O` [Example 38], in assay [2], the half-maximal effective concentration (EC50) is 17 nM and the Emax was 266%.

Regarding `OC[C@H]1OC[C@H](Oc2nc3c(F)c(-c4ccc(-c5ccc(-c6nccs6)cc5)cc4)c(F)cc3[nH]2)C[C@@H]1O` [Example 39], in assay [2], the EC50 turned out to be 13 nM and the Emax came out at 192%.

Consider `N=c1nc(N)[nH]n1-c1ccc(-c2ccc(-c3c(F)cc4[nH]c(O[C@H]5CO[C@H](CO)[C@@H](O)C5)nc4c3F)cc2)cc1` [Example 40], for which, in assay [2], the EC50 was 5 nM and the Emax came out at 387%.

Consider `O=S(=O)(c1ccc(-c2ccc(-c3c(F)cc4[nH]c(O[C@H]5CO[C@H](CO)[C@@H](O)C5)nc4c3F)cc2)cc1)C1CCNCC1` [Example 42], for which, in assay [2], the EC50 is 8 nM and the Emax came to 401%.

Turning to `O=C1NCCC1c1ccc(-c2ccc(-c3c(F)cc4[nH]c(O[C@H]5CO[C@H](CO)[C@@H](O)C5)nc4c3F)cc2)cc1` (stereo partly drawn) [Example 43], in assay [2], the concentration for a half-maximal effect (EC50) amounted to 4 nM and the Emax is 398%.

Regarding `O=C(O)CCCc1ccc(-c2ccc(-c3c(F)cc4[nH]c(O[C@H]5CO[C@H](CO)[C@@H](O)C5)nc4c3F)cc2)cc1` [Example 44], in assay [2], the concentration for a half-maximal effect (EC50) is 11 nM and the Emax was 426%.

For `OC[C@H]1OC[C@H](Oc2nc3c(F)c(-c4ccc(-c5ccc(-n6cncn6)cc5)cc4)c(F)cc3[nH]2)C[C@@H]1O` [Example 45], in assay [2], the EC50 was 2 nM and the Emax was 391%.

With `OC[C@H]1OC[C@H](Oc2nc3c(F)c(-c4ccc(-c5ccc(-c6nnc(O)o6)cc5)cc4)c(F)cc3[nH]2)C[C@@H]1O` [Example 47], in assay [2], the 50% effective concentration (EC50) stood at 7 nM and the Emax stood at 328%.

On to `CNC(=O)c1ccc(-c2ccc(-c3c(F)cc4[nH]c(O[C@H]5CO[C@H](CO)[C@@H](O)C5)nc4c3F)cc2)cc1` [Example 48], for which, in assay [2], the EC50 is 2 nM and the Emax was 414%.

Turning to `OC[C@H]1OC[C@H](Oc2nc3c(F)c(-c4ccc(-c5ccc(-c6nnn[nH]6)cc5)cc4)c(F)cc3[nH]2)C[C@@H]1O` [Example 49], in assay [2], the EC50 came out at 9 nM and the Emax came to 419%.

Turning to `CC(C)(O)Cc1cnn(-c2ccc(-c3ccc(-c4c(F)cc5[nH]c(O[C@H]6CO[C@H](CO)[C@@H](O)C6)nc5c4F)cc3)cc2)c1` [Example 50], in assay [2], the EC50 came out at 7 nM and the Emax was determined as 403%.

These data come from US9527839B2, “Benzimidazole tetrahydropyran derivatives” (Merck Sharp & Dohme Corp., priority 2012, dated 2016).
